EC50 data for 11 compounds are collected here from PubChem BioAssay AID651685 (The Scripps Research Institute Molecular Screening Center, 2012).

pEC50: −log10 of the molar value. Active and inactive are the calls of the source. No rule for the calls is given here. Where only a bound is given, the exact number is not on record here.

The target in this assay is Mu-type opioid receptor (Homo sapiens) (UniProt P35372). The assay is described as follows: mu-delta opioid heterodimer formation enhancers – cell-based, luminescence, dose response, late-stage follow-up (AID 651685). To be noted: cells, OPRM1-OPRD1 heterodimerization, luminescence complementation.
Sequence of Mu-type opioid receptor (Homo sapiens) (P35372 whole entry, looked up): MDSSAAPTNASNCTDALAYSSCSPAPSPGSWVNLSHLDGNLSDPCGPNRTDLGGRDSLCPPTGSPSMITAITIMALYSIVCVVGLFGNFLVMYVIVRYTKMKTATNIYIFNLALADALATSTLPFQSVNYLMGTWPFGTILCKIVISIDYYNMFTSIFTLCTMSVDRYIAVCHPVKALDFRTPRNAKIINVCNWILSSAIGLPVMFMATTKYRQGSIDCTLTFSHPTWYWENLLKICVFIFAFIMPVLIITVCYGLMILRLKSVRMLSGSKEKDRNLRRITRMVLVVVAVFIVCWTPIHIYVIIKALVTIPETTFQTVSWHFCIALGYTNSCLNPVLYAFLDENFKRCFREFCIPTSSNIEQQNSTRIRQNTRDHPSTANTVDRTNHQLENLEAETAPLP

One may read the EC50 as the concentration giving half of the maximal effect. As to `CCOC(=O)C1(Cc2ccccc2)CCN(Cc2cccn2-c2nccs2)CC1`, the EC50 is > 40 µM (inactive).

For the compound `CCOC(=O)C1(CCc2ccccc2)CCN(Cc2cc(C)cc(C)c2)CC1`, the EC50 is > 40 µM (inactive).

One may read the pEC50 as −log10 of the EC50, conventionally taken in molar units. As to `CCOC(=O)C1(CC2CCCCO2)CCN(Cc2c(C)cc(C)cc2-n2cccn2)CC1` (stereo unspecified), the pEC50 is 6.05.

With `CCOC(=O)C1(CCc2ccccc2)CCN(Cc2ccccc2C)CC1`, the pEC50 is 5.15.

As for `CCOC(=O)C1(CCc2ccccc2)CCN(Cc2ccc(OC(C)C)c(C#N)c2)CC1`, the EC50 was > 40 µM (inactive).

As to `CCOC(=O)C1(CCCc2ccccc2)CCN(Cc2cnn(C)c2)CC1`, the pEC50 is 5.05.

As to `OCC1(CCc2ccccc2)CCN(Cc2cc(F)ccc2-n2cccn2)CC1`, the EC50 is > 40 µM (inactive).

Turning to `CCOC(=O)C1(CCOc2ccccc2)CCN(Cc2cccn2-c2cccnc2)CC1`, the pEC50 is 5.36.

With `CCOC(=O)C1(CCOc2ccccc2)CCN(Cc2ccc(O)c(OC)c2)CC1`, the EC50 result is “inactive”.

Turning to `CCOC(=O)C1(CCc2ccccc2)CCN(Cc2ccc(NC(C)=O)cc2)CC1`, the pEC50 is 6.39.

`CCOC(=O)C1(Cc2ccccc2)CCN(Cc2cccn2-c2cccnc2)CC1`: the EC50 was > 40 µM (inactive).
